# Results as given in patent publication US10150760B2, “Compounds for use in preparing heterocyclic triazole agonists of the APJ receptor” (AMGEN INC., priority 2016, dated 2018).
# pEC50: −log10 of the molar value.
# Molecular target: human APJ receptor (Homo sapiens (Human), UniProt P35414)
# Assay: [35S]GTPγS binding assay on membranes from CHO cells stably expressing human APJ receptor
# Format: biochemical
# Details: read-out: Activity hAPJ SPA EC50 IP
# In short: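 Agonist-driven [35S]GTPγS (0.2 nM) binding was measured over 90 min at room temperature on human APJ-expressing CHO membranes with bead capture, in buffer containing 3 μM GDP, 200 mM NaCl and 5 mM MgCl2 (pH 7.5). Excess unlabelled GTPγS (100 μM) gave nonspecific signal; EC50 from non-linear fits.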
# human APJ receptor, sequence (P35414 whole entry): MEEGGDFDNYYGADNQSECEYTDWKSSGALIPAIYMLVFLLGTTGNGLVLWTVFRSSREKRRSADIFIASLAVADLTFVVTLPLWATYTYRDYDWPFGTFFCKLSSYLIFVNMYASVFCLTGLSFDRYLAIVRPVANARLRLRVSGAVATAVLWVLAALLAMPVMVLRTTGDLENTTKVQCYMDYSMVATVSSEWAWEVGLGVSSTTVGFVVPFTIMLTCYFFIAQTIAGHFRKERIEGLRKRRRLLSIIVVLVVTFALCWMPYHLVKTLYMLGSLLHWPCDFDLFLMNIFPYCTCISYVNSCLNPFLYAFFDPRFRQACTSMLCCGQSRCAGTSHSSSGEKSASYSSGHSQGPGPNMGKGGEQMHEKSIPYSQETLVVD
row,Substance,pEC50
1,"(1S,2S)-N-(4-(1,3-dimethoxy-2-propanyl)-5-((2R,5R)-5-methyltetrahydro-2-furanyl)-4H-1,2,4-triazol-3-yl)-1-(5-methoxy-2-pyrimidinyl)-1-(2-propanyloxy)-2-propanesulfonamide or (1S,2S)-N-(4-(1,3-dimethoxy-2-propanyl)-5-((2S,5S)-5-methyltetrahydro-2-furanyl)-4H-1,2,4-triazol-3-yl)-1-(5-methoxy-2-pyrimidinyl)-1-(2-propanyloxy)-2-propanesulfonamide [Example 362.0]",6.41
2,"(1S,2S)-N-(4-(1,3-dimethoxy-2-propanyl)-5-((2R,5R)-5-methyltetrahydro-2-furanyl)-4H-1,2,4-triazol-3-yl)-1-(5-methyl-2-pyridinyl)-1-(2-propanyloxy)-2-propanesulfonamide or (1S,2S)-N-(4-(1,3-dimethoxy-2-propanyl)-5-((2S,5S)-5-methyltetrahydro-2-furanyl)-4H-1,2,4-triazol-3-yl)-1-(5-methyl-2-pyridinyl)-1-(2-propanyloxy)-2-propanesulfonamide [Example 367.0]",7.92
3,"(1S,2S)-N-(4-(1,3-dimethoxy-2-propanyl)-5-((2R,5R)-5-methyltetrahydro-2-furanyl)-4H-1,2,4-triazol-3-yl)-1-(5-methyl-2-pyrimidinyl)-1-(2-propanyloxy)-2-propanesulfonamide or (1S,2S)-N-(4-(1,3-dimethoxy-2-propanyl)-5-((2S,5S)-5-methyltetrahydro-2-furanyl)-4H-1,2,4-triazol-3-yl)-1-(5-methyl-2-pyrimidinyl)-1-(2-propanyloxy)-2-propanesulfonamide [Example 358.0]",6.37
4,"(1S,2S)-N-(4-(2,6-dimethoxyphenyl)-5-((S)-1,4-dioxan-2-yl)-4H-1,2,4-triazol-3-yl)-1-isopropoxy-1-(5-methylpyrimidin-2-yl)propane-2-sulfonamide and (1S,2S)-N-(4-(2,6-dimethoxyphenyl)-5-((R)-1,4-dioxan-2-yl)-4H-1,2,4-triazol-3-yl)-1-isopropoxy-1-(5-methylpyrimidin-2-yl)propane-2-sulfonamide [Example 256.0]",7.82
5,"(1S,2S)-N-(4-(4,6-dimethoxypyrimidin-5-yl)-5-((R)-5,5-dimethyltetrahydrofuran-3-yl)-4H-1,2,4-triazol-3-yl)-1-isopropoxy-1-(5-methylpyrimidin-2-yl)propane-2-sulfonamide or (1S,2S)-N-(4-(4,6-dimethoxypyrimidin-5-yl)-5-((S)-5,5-dimethyltetrahydrofuran-3-yl)-4H-1,2,4-triazol-3-yl)-1-isopropoxy-1-(5-methylpyrimidin-2-yl)propane-2-sulfonamide [Example 313.0]",6.28
6,"(1S,2S)-N-(4-(4,6-dimethoxypyrimidin-5-yl)-5-((R)-tetrahydrofuran-3-yl)-4H-1,2,4-triazol-3-yl)-1-(5-fluoropyrimidin-2-yl)-1-isopropoxypropane-2-sulfonamide or (1S,2S)-N-(4-(4,6-dimethoxypyrimidin-5-yl)-5-((S)-tetrahydrofuran-3-yl)-4H-1,2,4-triazol-3-yl)-1-(5-fluoropyrimidin-2-yl)-1-isopropoxypropane-2-sulfonamide [Example 321.0]",7.17
7,"(1S,2S)-N-(4-(4,6-dimethoxypyrimidin-5-yl)-5-((R)-tetrahydrofuran-3-yl)-4H-1,2,4-triazol-3-yl)-1-(5-fluoropyrimidin-2-yl)-1-isopropoxypropane-2-sulfonamide or (1S,2S)-N-(4-(4,6-dimethoxypyrimidin-5-yl)-5-((S)-tetrahydrofuran-3-yl)-4H-1,2,4-triazol-3-yl)-1-(5-fluoropyrimidin-2-yl)-1-isopropoxypropane-2-sulfonamide [Example 322.0]",6.51
8,"(1S,2S)-N-(4-(4,6-dimethoxypyrimidin-5-yl)-5-((R)-tetrahydrofuran-3-yl)-4H-1,2,4-triazol-3-yl)-1-isopropoxy-1-(5-methylpyridin-2-yl)propane-2-sulfonamide or (1S,2S)-N-(4-(4,6-dimethoxypyrimidin-5-yl)-5-((S)-tetrahydrofuran-3-yl)-4H-1,2,4-triazol-3-yl)-1-isopropoxy-1-(5-methylpyridin-2-yl)propane-2-sulfonamide [Example 323.0]",7.33
9,"(1S,2S)-N-(4-(4,6-dimethoxypyrimidin-5-yl)-5-((R)-tetrahydrofuran-3-yl)-4H-1,2,4-triazol-3-yl)-1-isopropoxy-1-(5-methylpyridin-2-yl)propane-2-sulfonamide or (1S,2S)-N-(4-(4,6-dimethoxypyrimidin-5-yl)-5-((S)-tetrahydrofuran-3-yl)-4H-1,2,4-triazol-3-yl)-1-isopropoxy-1-(5-methylpyridin-2-yl)propane-2-sulfonamide [Example 324.0]",6.42

# Continued by rising pEC50, values first:
row,pEC50,Substance
1,6.17,"(1S,2S)-N-(4-(1,3-dimethoxy-2-propanyl)-5-((2R,5R)-5-methyltetrahydro-2-furanyl)-4H-1,2,4-triazol-3-yl)-1-(5-methyl-2-pyridinyl)-1-(2-propanyloxy)-2-propanesulfonamide or (1S,2S)-N-(4-(1,3-dimethoxy-2-propanyl)-5-((2S,5S)-5-methyltetrahydro-2-furanyl)-4H-1,2,4-triazol-3-yl)-1-(5-methyl-2-pyridinyl)-1-(2-propanyloxy)-2-propanesulfonamide [Example 366.0]"
2,7.14,"(1S,2S)-N-(4-(1,3-dimethoxy-2-propanyl)-5-((2R,5R)-5-methyltetrahydro-2-furanyl)-4H-1,2,4-triazol-3-yl)-1-(5-methyl-2-pyrazinyl)-1-(2-propanyloxy)-2-propanesulfonamide or (1S,2S)-N-(4-(1,3-dimethoxy-2-propanyl)-5-((2S,5S)-5-methyltetrahydro-2-furanyl)-4H-1,2,4-triazol-3-yl)-1-(5-methyl-2-pyrazinyl)-1-(2-propanyloxy)-2-propanesulfonamide [Example 365.0]"
3,7.15,"(1S,2S)-N-(4-(4,6-dimethoxypyrimidin-5-yl)-5-((R)-5,5-dimethyltetrahydrofuran-3-yl)-4H-1,2,4-triazol-3-yl)-1-isopropoxy-1-(5-methylpyrimidin-2-yl)propane-2-sulfonamide or (1S,2S)-N-(4-(4,6-dimethoxypyrimidin-5-yl)-5-((S)-5,5-dimethyltetrahydrofuran-3-yl)-4H-1,2,4-triazol-3-yl)-1-isopropoxy-1-(5-methylpyrimidin-2-yl)propane-2-sulfonamide [Example 314.0]"
4,7.16,"(1S,2S)-N-(4-(1,3-dimethoxy-2-propanyl)-5-((2R,5R)-5-methyltetrahydro-2-furanyl)-4H-1,2,4-triazol-3-yl)-1-(5-methyl-2-pyrazinyl)-1-(2-propanyloxy)-2-propanesulfonamide or (1S,2S)-N-(4-(1,3-dimethoxy-2-propanyl)-5-((2S,5S)-5-methyltetrahydro-2-furanyl)-4H-1,2,4-triazol-3-yl)-1-(5-methyl-2-pyrazinyl)-1-(2-propanyloxy)-2-propanesulfonamide [Example 364.0]"
5,7.55,"(1S,2S)-N-(4-(1,3-dimethoxy-2-propanyl)-5-((2R,5R)-5-methyltetrahydro-2-furanyl)-4H-1,2,4-triazol-3-yl)-1-(5-methoxy-2-pyrimidinyl)-1-(2-propanyloxy)-2-propanesulfonamide or (1S,2S)-N-(4-(1,3-dimethoxy-2-propanyl)-5-((2S,5S)-5-methyltetrahydro-2-furanyl)-4H-1,2,4-triazol-3-yl)-1-(5-methoxy-2-pyrimidinyl)-1-(2-propanyloxy)-2-propanesulfonamide [Example 363.0]"
6,7.96,"(1S,2S)-N-(4-(1,3-dimethoxy-2-propanyl)-5-((2R,5R)-5-methyltetrahydro-2-furanyl)-4H-1,2,4-triazol-3-yl)-1-(5-methyl-2-pyrimidinyl)-1-(2-propanyloxy)-2-propanesulfonamide or (1S,2S)-N-(4-(1,3-dimethoxy-2-propanyl)-5-((2S,5S)-5-methyltetrahydro-2-furanyl)-4H-1,2,4-triazol-3-yl)-1-(5-methyl-2-pyrimidinyl)-1-(2-propanyloxy)-2-propanesulfonamide [Example 359.0]"
7,8.00,"(1S,2S)-N-(4-(1,3-dimethoxy-2-propanyl)-5-((2R,5R)-5-methyltetrahydro-2-furanyl)-4H-1,2,4-triazol-3-yl)-1-(5-fluoro-2-pyrimidinyl)-1-(2-propanyloxy)-2-propanesulfonamide or (1S,2S)-N-(4-(1,3-dimethoxy-2-propanyl)-5-((2S,5S)-5-methyltetrahydro-2-furanyl)-4H-1,2,4-triazol-3-yl)-1-(5-fluoro-2-pyrimidinyl)-1-(2-propanyloxy)-2-propanesulfonamide [Example 361.0]"
8,8.00,"(1S,2S)-N-(4-(2,6-dimethoxyphenyl)-5-((3R)-tetrahydro-3-furanyl)-4H-1,2,4-triazol-3-yl)-1-(5-methyl-2-pyridinyl)-1-(2-propanyloxy)-2-propanesulfonamide or (1S,2S)-N-(4-(2,6-dimethoxyphenyl)-5-((3S)-tetrahydro-3-furanyl)-4H-1,2,4-triazol-3-yl)-1-(5-methyl-2-pyridinyl)-1-(2-propanyloxy)-2-propanesulfonamide [Example 407.0]"
9,9.21,"(1S,2S)-N-(4-(2,6-dimethoxyphenyl)-5-((S)-5,5-dimethyltetrahydrofuran-2-yl)-4H-1,2,4-triazol-3-yl)-1-isopropoxy-1-(5-methylpyrimidin-2-yl)propane-2-sulfonamide or (1S,2S)-N-(4-(2,6-dimethoxyphenyl)-5-((R)-5,5-dimethyltetrahydrofuran-2-yl)-4H-1,2,4-triazol-3-yl)-1-isopropxy-1-(5-methylpyrimidin-2-yl)propane-2-sulfonamide [Example 210.0]"
